The supplement of paper PMC10307832

Assays:
Test in all cases: relative viability (nuclei count vs DMSO), 5 days (fraction); higher = more cells survive
COR-L23 = tested on: COR-L23
In short: (§1)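 Dosing by pin tool came one day after lung cancer cell lines were seeded in 1536-well plates, using either one drug or a fixed anchor-drug dose plus five library-drug doses (not always all listed) in √10 steps. After 5 days, nuclei were counted on 4× images. Relative viability is treated-well nuclei count divided by vehicle-well nuclei count, and values are medians of duplicate plates.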

H3255 = tested on: H3255
In short: as §1

NCI-H596 = tested on: NCI-H596
In short: as §1

LCLC-103H = tested on: LCLC-103H
In short: as §1

LK-2 = tested on: LK-2
In short: as §1

NCI-H2347 = tested on: NCI-H2347
In short: as §1

LU99A = tested on: LU99A
In short: as §1

LC-2-ad = tested on: LC-2-ad
In short: as §1

NCI-H1563 = tested on: NCI-H1563
In short: as §1

A-427 = tested on: A-427
In short: as §1

SMILES: COc1cc2nccc(Oc3ccc(NC(=O)Nc4cc(C)on4)c(Cl)c3)c2cc1OC [Tivozanib] + C[C@]1(O)C[C@@H](c2nc(-c3ccc4ccc(-c5ccccc5)nc4c3)c3c(N)nccn32)C1 [Linsitinib] (partner 1 µM)
- relative viability (COR-L23; first compound 0.01581 µM): 0.886
- relative viability (COR-L23; first compound 0.05 µM): 0.994
- relative viability (COR-L23; first compound 0.1581 µM): 0.887
- relative viability (COR-L23; first compound 0.5 µM): 0.819
- relative viability (H3255; first compound 0.005 µM): 0.965
- relative viability (H3255; first compound 0.01581 µM): 0.933
- relative viability (H3255; first compound 0.05 µM): 1.09
- relative viability (H3255; first compound 0.1581 µM): 1.05
- relative viability (H3255; first compound 0.5 µM): 0.891
- relative viability (NCI-H596; first compound 0.005 µM): 1.1
- relative viability (NCI-H596; first compound 0.01581 µM): 1.03
- relative viability (NCI-H596; first compound 0.05 µM): 0.953
- relative viability (NCI-H596; first compound 0.1581 µM): 0.952
- relative viability (NCI-H596; first compound 0.5 µM): 1.01
- relative viability (LCLC-103H; first compound 0.005 µM): 1.01
- relative viability (LCLC-103H; first compound 0.01581 µM): 0.959
- relative viability (LCLC-103H; first compound 0.05 µM): 1.07
- relative viability (LCLC-103H; first compound 0.1581 µM): 1.21
- relative viability (LCLC-103H; first compound 0.5 µM): 1.12
- relative viability (LK-2; first compound 0.005 µM): 0.521
- relative viability (LK-2; first compound 0.01581 µM): 0.616
- relative viability (LK-2; first compound 0.05 µM): 0.49
- relative viability (LK-2; first compound 0.1581 µM): 0.601
- relative viability (LK-2; first compound 0.5 µM): 0.393
- relative viability (NCI-H2347; first compound 0.005 µM): 0.711
- relative viability (NCI-H2347; first compound 0.01581 µM): 0.897
- relative viability (NCI-H2347; first compound 0.05 µM): 0.966
- relative viability (NCI-H2347; first compound 0.1581 µM): 1.1
- relative viability (NCI-H2347; first compound 0.5 µM): 0.92
- relative viability (LU99A; first compound 0.005 µM): 0.517
- relative viability (LU99A; first compound 0.01581 µM): 0.506
- relative viability (LU99A; first compound 0.05 µM): 0.581
- relative viability (LU99A; first compound 0.5 µM): 0.534
- relative viability (LC-2-ad; first compound 0.005 µM): 0.86
- relative viability (LC-2-ad; first compound 0.01581 µM): 0.791
- relative viability (LC-2-ad; first compound 0.05 µM): 0.73
- relative viability (LC-2-ad; first compound 0.1581 µM): 0.526
- relative viability (LC-2-ad; first compound 0.5 µM): 0.616
- relative viability (NCI-H1563; first compound 0.005 µM): 1.19
- relative viability (NCI-H1563; first compound 0.01581 µM): 1.32
- relative viability (NCI-H1563; first compound 0.05 µM): 1.24
- relative viability (NCI-H1563; first compound 0.1581 µM): 1.12
- relative viability (NCI-H1563; first compound 0.5 µM): 1.22
- relative viability (A-427; first compound 0.005 µM): 1.09
- relative viability (A-427; first compound 0.01581 µM): 1.1
- relative viability (A-427; first compound 0.05 µM): 1.23
- relative viability (A-427; first compound 0.1581 µM): 0.987
- relative viability (A-427; first compound 0.5 µM): 1.07
